The record followed here is paper PMC8406319, “The dCache Chemoreceptor TlpA of Helicobacter pylori Binds Multiple Attractant and Antagonistic Ligands via Distinct Sites” (mBio, 2021).

One assay relates to WT TlpALBD. In words: SPR competition (A-B-A) binding assay. Conditions: compounds at 10-fold their Kd. Set-up: species or system Helicobacter pylori SS1. How it is done:
The two ligands’ binding status can be classified as either independent, shared, or preferential shared sites. For independent sites, ligand A saturates all its binding sites, and ligand B then binds to its independent site; this mode produces additive effects on the SPR signal. […] Finally, it is also possible to have preferential shared sites where ligands share the same binding site, but the protein binds to one ligand preferentially when in equilibrium.
SPR competition assays were performed by using a Biacore S200 instrument and the A-B-A inject function ([56]). Competition A-B-A analyses were used to interrogate the specificity of the potential ligand binding site preferences of TlpALBD and to unravel the nature of the ligand-sensor interactions. This assay was designed to show if a cumulative response is observed when a second analyte (B) is flown across the bound protein saturated with the first analyte (A) (Fig. 4). […] The wild-type TlpALBD protein was immobilized as described above. […] All response data were normalized to a molecular weight of 100 Da for each analyte, allowing direct comparison of responses. Independent-site theoretical values are calculated by taking the sum of individual responses. Shared-site theoretical values are calculated by taking the sum of individual responses divided by the number of individual responses.

Another assay concerns H. pylori PMSS1 WT. In words: Ligand competition tracking (chemotaxis) assay. The format is cell-based, Helicobacter pylori. Conditions: 10 mM each; added before or after the chemoattractant. How it is done:
Consequently, we tested whether glucosamine affected H. pylori chemotaxis by developing a ligand competition tracking assay between non-chemotaxis-active and chemotaxis-active TlpA ligands. This assay is a modified version of our live-cell video microscopy assay where the addition of a chemotaxis-active ligand is followed by the addition of a non-chemotaxis-active ligand 10 s later and vice versa. […] This response was decreased regardless of whether glucosamine was added before or after the addition of the chemoattractant.
FIG 7 Ligand competition tracking experiment between chemoactive and nonchemoactive TlpA ligands. Cultures of the H. pylori PMSS1 WT were grown in BB10 overnight and then back-diluted as described in the legend of Fig. 1. Cultures were mock treated or treated with various concentrations of compounds as indicated. The pH of the cysteine stock was adjusted using NaOH to match the pH of the water used for the untreated control. The cells were immediately filmed, and direction changes were counted over a 3-s swimming period in at least 100 cells per treatment from 3 biological replicates. Repellents increase direction changes, as exemplified by the control repellent HCl, while attractants decrease direction changes, as exemplified by the control attractant dipyridyl. Data are normalized to the values for the untreated control for each strain, as described in Materials and Methods. […]
Swimming behavior assays were done with H. pylori PMSS1 strains grown in BB10 as described above. […] The pH of BB10 upon treatment was independently assessed using a Denver Instruments pH meter. […] For each sample, >100 3-s-long bacterial tracks from three independent cultures were analyzed manually to identify stops followed by direction changes. Data for all biological replicates under each condition were combined, and the average number of direction changes in 3 s and the standard error of the mean were calculated. […]

The subject of a further assay is TlpALBD. Nature of the assay: Saturation transfer difference (STD) NMR. The note with it: 25 μM TlpALBD, 2.5 mM ligand. It counts as binding, Helicobacter pylori SS1. How it is done:
In the saturation transfer difference (STD) NMR experiment, the entire TlpALBD protein was first saturated at the protein resonances, and excess ligand was then added. As the ligand binds and releases from the receptor, saturation transfers from the protein to the bound ligand. This transfer appeared as an […] in the ligand intensity on epitopes that interacted with the TlpALBD protein. […] All STD NMR spectra were acquired in Shigemi tubes (Shigemi, USA) with a Bruker 600-MHz Advance spectrometer at 283 K using a 1^H-13^C-15^N gradient cryoprobe equipped with z-gradients. Protein resonances were saturated at −1.0 ppm (on-resonance) and 33 ppm (off-resonance), with a total saturation time of 2 s. A total of 512 scans per STD NMR experiment were acquired, and a Watergate sequence was used to suppress the residual HDO signal. A spin-lock filter with a 5-kHz strength and a duration of 10 ms was applied to suppress the protein background. On- and off-resonance spectra were stored and processed separately, and the final STD NMR spectra were obtained by subtracting the on- and off-resonance spectra. Control STD NMR experiments were performed identically in the absence of protein.

The structures appear in SMILES notation. Counter-ions that a name gives are not always drawn.

`N[C@H]1C(O)O[C@H](CO)[C@@H](O)[C@@H]1O` (stereo partly drawn) [Glucosamine, D(+)-glucosamine hydrochloride]: the “SPR response following saturation with arginine or fumarate” value with WT TlpALBD is reported as “the response was not additive”. In the assay with H. pylori PMSS1 WT, the “Effect on chemoattractant response to arginine” value is “prevented the chemoattractant response”, the “Effect on chemoattractant response to cysteine” value is recorded as “severely blunted the response” and the “Effect on chemoattractant response to fumarate” value was “prevented the chemoattractant response”.

As to `N=C(N)NCCC[C@H](N)C(=O)O` [Arginine, L-arginine monohydrochloride], the “SPR response following initial saturation with glucosamine” value in the assay on WT TlpALBD is “no additive response was observed”. For the same compound, the “SPR response after saturation of TlpALBD with fumarate” value with WT TlpALBD (compared to theoretical value) is listed as “did not produce an additional response”. The “STD NMR signal on binding TlpALBD” value in the assay on TlpALBD is recorded as “significant STD NMR signals were observed”.

For `O=C(O)/C=C/C(=O)O` [Fumarate, sodium fumarate], in the assay with WT TlpALBD, the “SPR response following initial saturation with glucosamine” value is reported as “no additive response was observed”. The “SPR response after saturation of TlpALBD with arginine” value in the assay on WT TlpALBD (compared to theoretical value) is listed as “increased response (additive effect)”. The “STD NMR signal on binding TlpALBD” value with TlpALBD is reported as “significant STD NMR signal was detected”.
